Assay results as given in PMC11277489, “Novel Piperazine Derivatives of Vindoline as Anticancer Agents” (International Journal of Molecular Sciences, 2024).
Where two headings read alike, the source gives them in different places.

Assays:
CCRF-CEM = assay: NCI60 one-dose screen (10 μM), Leukemia; assay type: cell-based; settings: Homo sapiens, read-out: Growth percent rate
HL-60(TB) = assay: NCI60 one-dose screen (10 μM), Leukemia; assay type: cell-based; settings: Homo sapiens
K-562 = assay: NCI60 one-dose screen (10 μM), Leukemia; assay type: cell-based; settings: Homo sapiens
MOLT-4 = assay: NCI60 one-dose screen (10 μM), Leukemia; assay type: cell-based, human; settings: Homo sapiens
RPMI-8226 = assay: NCI60 one-dose screen (10 μM), Leukemia; assay type: cell-based; settings: Homo sapiens
A549/ATCC = assay: NCI60 one-dose screen (10 μM), Non-small Cell Lung Cancer; assay type: cell-based; settings: Homo sapiens
EKVX = assay: as above; assay type: cell-based; settings: Homo sapiens, read-out: Growth percent rate
HOP-62 = assay: as above; assay type: cell-based; settings: Homo sapiens
NCI-H23 = assay: as above; assay type: cell-based; settings: Homo sapiens
NCI-H322M = assay: as above; assay type: cell-based; settings: Homo sapiens, read-out: Growth percent rate
NCI-H460 = assay: as above; assay type: cell-based; settings: Homo sapiens
NCI-H522 = assay: as above; assay type: cell-based; settings: Homo sapiens
COLO 205 = assay: NCI60 one-dose screen (10 μM), Colon Cancer; assay type: cell-based, human; settings: Homo sapiens
HCC-2998 = assay: NCI60 one-dose screen (10 μM), Colon Cancer; assay type: cell-based; settings: Homo sapiens
HCT-116 = assay: NCI60 one-dose screen (10 μM), Colon Cancer; assay type: cell-based; settings: Homo sapiens
HCT-15 = assay: NCI60 one-dose screen (10 μM), Colon Cancer; assay type: cell-based; settings: Homo sapiens
HT29 = assay: NCI60 one-dose screen (10 μM), Colon Cancer; assay type: cell-based; settings: Homo sapiens
SW-620 = assay: NCI60 one-dose screen (10 μM), Colon Cancer; assay type: cell-based; settings: Homo sapiens
SF-268 = assay: NCI60 one-dose screen (10 μM), CNS Cancer; assay type: cell-based; settings: Homo sapiens
SF-539 = assay: NCI60 one-dose screen (10 μM), CNS Cancer; assay type: cell-based, human; settings: Homo sapiens
SNB-75 = assay: NCI60 one-dose screen (10 μM), CNS Cancer; assay type: cell-based, human; settings: Homo sapiens
U251 = assay: NCI60 one-dose screen (10 μM), CNS Cancer; assay type: cell-based; settings: Homo sapiens
M14 = assay: NCI60 one-dose screen (10 μM), Melanoma; assay type: cell-based; settings: Homo sapiens
MDA-MB-435 = assay: NCI60 one-dose screen (10 μM), Melanoma; assay type: cell-based; settings: Homo sapiens
SK-MEL-2 = assay: NCI60 one-dose screen (10 μM), Melanoma; assay type: cell-based; settings: Homo sapiens
SK-MEL-28 = assay: NCI60 one-dose screen (10 μM), Melanoma; assay type: cell-based; settings: Homo sapiens
SK-MEL-5 = assay: NCI60 one-dose screen (10 μM), Melanoma; assay type: cell-based, human; settings: Homo sapiens
UACC-257 = assay: NCI60 one-dose screen (10 μM), Melanoma; assay type: cell-based; settings: Homo sapiens
IGROV1 = assay: NCI60 one-dose screen (10 μM), Ovarian Cancer; assay type: cell-based; settings: Homo sapiens
OVCAR-3 = assay: NCI60 one-dose screen (10 μM), Ovarian Cancer; assay type: cell-based; settings: Homo sapiens
OVCAR-4 = assay: NCI60 one-dose screen (10 μM), Ovarian Cancer; assay type: cell-based; settings: Homo sapiens
OVCAR-8 = assay: NCI60 one-dose screen (10 μM), Ovarian Cancer; assay type: cell-based; settings: Homo sapiens
786–0 = assay: NCI60 one-dose screen (10 μM), Renal Cancer; assay type: cell-based; settings: Homo sapiens
A498 = assay: NCI60 one-dose screen (10 μM), Renal Cancer; assay type: cell-based; settings: Homo sapiens
ACHN = assay: NCI60 one-dose screen (10 μM), Renal Cancer; assay type: cell-based; settings: Homo sapiens, read-out: Growth percent rate
CAKI-1 = assay: NCI60 one-dose screen (10 μM), Renal Cancer; assay type: cell-based; settings: Homo sapiens
RXF 393 = assay: NCI60 one-dose screen (10 μM), Renal Cancer; assay type: cell-based, human; settings: Homo sapiens
SN12C = assay: NCI60 one-dose screen (10 μM), Renal Cancer; assay type: cell-based; settings: Homo sapiens, read-out: Growth percent rate
DU-145 = assay: NCI60 one-dose screen (10 μM), Prostate Cancer; assay type: cell-based; settings: Homo sapiens
MCF7 = assay: NCI60 one-dose screen (10 μM), Breast Cancer; assay type: cell-based; settings: Homo sapiens
HS 578T = assay: NCI60 one-dose screen (10 μM), Breast Cancer; assay type: cell-based; settings: Homo sapiens, read-out: Growth percent rate
[1] = system: 60 human tumor cell lines (NCI60); assay: NCI60 one-dose screen (10 μM), whole panel; assay type: cell-based; settings: read-out: Growth percent rate, Mean
[2] = 10 μM, Non-small Cell Lung Cancer

## CC[C@]12C=CCN3CC[C@@]4(c5ccc(OC)cc5N(C)[C@H]4[C@@](O)(C(=O)OC)[C@@H]1OC(=O)CCC(=O)N1CCN(C)CC1)[C@@H]32 [Compound 27]
CCRF-CEM; 10 μM, Leukemia
  activity at 10 µM: 104%
HL-60(TB); 10 μM, HL-60(TB), Leukemia, read-out: Growth percent rate
  activity at 10 µM: 112%
K-562; K562, 10 μM, K-562, Leukemia, read-out: Growth percent rate
  activity at 10 µM: 124%
MOLT-4; 10 μM, MOLT-4, Leukemia, read-out: Growth percent rate
  activity at 10 µM: 100%
RPMI-8226; 10 μM, RPMI-8226, Leukemia, read-out: Growth percent rate
  activity at 10 µM: 94.5%
A549/ATCC; 10 μM, A549/ATCC, Non-small Cell Lung Cancer, read-out: Growth percent rate
  activity at 10 µM: 94.2%
EKVX; [2]
  activity at 10 µM: 90.7%
HOP-62; 10 μM, HOP-62, Non-small Cell Lung Cancer, read-out: Growth percent rate
  activity at 10 µM: 119%
NCI-H23; 10 μM, NCI-H23, Non-small Cell Lung Cancer, read-out: Growth percent rate
  activity at 10 µM: 98.9%
NCI-H322M; [2]
  activity at 10 µM: 110%
NCI-H460; 10 μM, NCI-H460, Non-small Cell Lung Cancer, read-out: Growth percent rate
  activity at 10 µM: 102%
NCI-H522; 10 μM, NCI-H522, Non-small Cell Lung Cancer, read-out: Growth percent rate
  activity at 10 µM: 84.5%
COLO 205; 10 μM, COLO 205, Colon Cancer, read-out: Growth percent rate
  activity at 10 µM: 118%
HCC-2998; 10 μM, HCC-2998, Colon Cancer, read-out: Growth percent rate
  activity at 10 µM: 86.5%
HCT-116; 10 μM, HCT-116, Colon Cancer, read-out: Growth percent rate
  activity at 10 µM: 103%
HCT-15; 10 μM, HCT-15, Colon Cancer, read-out: Growth percent rate
  activity at 10 µM: 103%
HT29; HT-29, 10 μM, HT29, Colon Cancer, read-out: Growth percent rate
  activity at 10 µM: 96.7%
SW-620; 10 μM, SW-620, Colon Cancer, read-out: Growth percent rate
  activity at 10 µM: 105%
SF-268; 10 μM, SF-268, CNS Cancer, read-out: Growth percent rate
  activity at 10 µM: 99.5%
SF-539; 10 μM, SF-539, CNS Cancer, read-out: Growth percent rate
  activity at 10 µM: 100%
SNB-75; 10 μM, SNB-75, CNS Cancer, read-out: Growth percent rate
  activity at 10 µM: 64.3%
U251; U-251, 10 μM, U251, CNS Cancer, read-out: Growth percent rate
  activity at 10 µM: 110%
M14; 10 μM, M14, Melanoma, read-out: Growth percent rate
  activity at 10 µM: 114%
MDA-MB-435; 10 μM, MDA-MB-435, Melanoma, read-out: Growth percent rate
  activity at 10 µM: 121%
SK-MEL-2; 10 μM, SK-MEL-2, Melanoma, read-out: Growth percent rate
  activity at 10 µM: 88.2%
SK-MEL-28; 10 μM, SK-MEL-28, Melanoma, read-out: Growth percent rate
  activity at 10 µM: 94.8%
SK-MEL-5; 10 μM, SK-MEL-5, Melanoma, read-out: Growth percent rate
  activity at 10 µM: 91.5%
UACC-257; 10 μM, UACC-257, Melanoma, read-out: Growth percent rate
  activity at 10 µM: 99.2%
IGROV1; IGROV-1, 10 μM, IGROV1, Ovarian Cancer, read-out: Growth percent rate
  activity at 10 µM: 96.8%
OVCAR-3; 10 μM, OVCAR-3, Ovarian Cancer, read-out: Growth percent rate
  activity at 10 µM: 89.2%
OVCAR-4; 10 μM, OVCAR-4, Ovarian Cancer, read-out: Growth percent rate
  activity at 10 µM: 105%
OVCAR-8; 10 μM, OVCAR-8, Ovarian Cancer, read-out: Growth percent rate
  activity at 10 µM: 99.6%
786–0; 10 μM, 786-0, Renal Cancer, read-out: Growth percent rate
  activity at 10 µM: 99.7%
A498; 10 μM, A498, Renal Cancer, read-out: Growth percent rate
  activity at 10 µM: 105%
ACHN; 10 μM, Renal Cancer
  activity at 10 µM: 99.2%
CAKI-1; 10 μM, CAKI-1, Renal Cancer, read-out: Growth percent rate
  activity at 10 µM: 96.6%
RXF 393; 10 μM, RXF 393, Renal Cancer, read-out: Growth percent rate
  activity at 10 µM: 82.3%
SN12C; 10 μM, Renal Cancer
  activity at 10 µM: 86.7%
DU-145; 10 μM, DU-145, Prostate Cancer, read-out: Growth percent rate
  activity at 10 µM: 103%
MCF7; 10 μM, MCF7, Breast Cancer, read-out: Growth percent rate
  activity at 10 µM: 81%
HS 578T; 10 μM, HS 578T, Breast Cancer
  activity at 10 µM: 70.8%
[1]; 10 μM, mean over 60 human cancer cell lines
  activity at 10 µM: 99.5%

## CCC12C=CCN3CCC4(c5cc(NC(=O)CN6CCN(Cc7ccc(F)cc7)CC6)c(OC)cc5N(C)C4C(O)(C(=O)OC)C1OC(C)=O)C32 (stereo not drawn) [Compound 19]
CCRF-CEM
  activity at 10 µM: 105%
HL-60(TB); HL-60, read-out: Growth percent rate
  activity at 10 µM: 101%
K-562; K562, read-out: Growth percent rate
  activity at 10 µM: 74%
MOLT-4; MOLT-4, read-out: Growth percent rate
  activity at 10 µM: 78%
RPMI-8226; RPMI-8226, read-out: Growth percent rate
  activity at 10 µM: 94.1%
A549/ATCC; A549, read-out: Growth percent rate
  activity at 10 µM: 89%
EKVX
  activity at 10 µM: 88.8%
HOP-62; HOP-62, read-out: Growth percent rate
  activity at 10 µM: 106%
NCI-H23; NCI-H23, read-out: Growth percent rate
  activity at 10 µM: 103%
NCI-H322M
  activity at 10 µM: 98.5%
NCI-H460; NCI-H460, read-out: Growth percent rate
  activity at 10 µM: 129%
NCI-H522; NCI-H522, read-out: Growth percent rate
  activity at 10 µM: 93.5%
COLO 205; COLO 205, read-out: Growth percent rate
  activity at 10 µM: 101%
HCC-2998; HCC 2998, read-out: Growth percent rate
  activity at 10 µM: 102%
HCT-116; HCT-116, read-out: Growth percent rate
  activity at 10 µM: 101%
HCT-15; HCT-15, read-out: Growth percent rate
  activity at 10 µM: 95%
HT29; HT-29, read-out: Growth percent rate
  activity at 10 µM: 108%
SW-620; SW-620, read-out: Growth percent rate
  activity at 10 µM: 118%
SF-268; SF-268, read-out: Growth percent rate
  activity at 10 µM: 102%
SF-539; SF-539, read-out: Growth percent rate
  activity at 10 µM: 102%
SNB-75; SNB-75, read-out: Growth percent rate
  activity at 10 µM: 87.3%
U251; U-251, read-out: Growth percent rate
  activity at 10 µM: 103%
M14; M14, read-out: Growth percent rate
  activity at 10 µM: 102%
MDA-MB-435; MDA-MB-435, read-out: Growth percent rate
  activity at 10 µM: 103%
SK-MEL-2; SK-MEL-2, read-out: Growth percent rate
  activity at 10 µM: 103%
SK-MEL-28; SK-MEL-28, read-out: Growth percent rate
  activity at 10 µM: 109%
SK-MEL-5; SK-MEL-5, read-out: Growth percent rate
  activity at 10 µM: 92.8%
UACC-257; UACC-257, read-out: Growth percent rate
  activity at 10 µM: 98.4%
IGROV1; IGROV-1, read-out: Growth percent rate
  activity at 10 µM: 113%
OVCAR-3; OVCAR-3, read-out: Growth percent rate
  activity at 10 µM: 119%
OVCAR-4; OVCAR-4, read-out: Growth percent rate
  activity at 10 µM: 102%
OVCAR-8; OVCAR-8, read-out: Growth percent rate
  activity at 10 µM: 100%
786–0; 786-0, read-out: Growth percent rate
  activity at 10 µM: 92.8%
A498; A498, read-out: Growth percent rate
  activity at 10 µM: 132%
ACHN
  activity at 10 µM: 102%
CAKI-1; CAKI-1, read-out: Growth percent rate
  activity at 10 µM: 69.3%
RXF 393; RXF 393, read-out: Growth percent rate
  activity at 10 µM: 90.4%
SN12C
  activity at 10 µM: 103%
DU-145; DU-145, read-out: Growth percent rate
  activity at 10 µM: 111%
MCF7; MCF7, read-out: Growth percent rate
  activity at 10 µM: 80%
HS 578T; Hs-578T
  activity at 10 µM: 110%
[1]; Homo sapiens
  activity at 10 µM: 99.6%
